Assay: Acidolysis (rate of scission) of acylated NMeAib amides with 2% TFA in acetonitrile
Type: physicochemical
Conditions: for t½ of protecting group: mild acidic conditions (2% TFA in acetonitrile)
From the text: In accordance with the present invention, it has been discovered that the rate of reaction can be altered simply by modifying X. Thus, for electron-donating X groups the rate of scission (the sensitivity to acidic conditions) increases. The opposite effect holds true for electron-withdrawing X groups. Four p-substituted benzoyl-N—MeAib—Phe—OMe (7a-d) compounds were subjected to acidic conditions (2% trifluoroacetic acid (TFA) in acetonitrile) and the rate of scission measured for each protecting group.
The equation representing the line in FIG. 1 is particularly useful because it allows one to predict the rate of scission for any m-substituted or p-substituted X—C6H4C(O)—NMeAib amide where a for the parent acid is known. […]

[1] = acidolysis with 2% TFA in acetonitrile

| Half-life [1] [h] | Half-life (2% TFA in acetonitrile) | t½ of protecting group [h] | half life predicted from the linear free energy equation of FIG. 1 (predicted from σ of the parent acid, X = dimethylamino) | Compound | k [1] [s⁻¹] |
| --- | --- | --- | --- | --- | --- |
| 8 |  |  |  | COC(=O)[C@H](Cc1ccccc1)NC(=O)C(C)(C)N(C)C(=O)c1ccc(C#N)cc1 [CN, p-CN—C6H4C(O)—NMeAib—Phe—OMe] | 2.3e-05 ± 1e-06 |
| 2 | about 2 hours |  |  | COC(=O)[C@H](Cc1ccccc1)NC(=O)C(C)(C)N(C)C(=O)c1ccc(Cl)cc1 [Cl, p-Cl—C6H4C(O)—NMeAib—Phe—OMe] | 8.3e-05 ± 3e-06 |
| 12 | about 12 hours |  |  | COC(=O)[C@H](Cc1ccccc1)NC(=O)C(C)(C)N(C)C(=O)c1ccc([N+](=O)[O-])cc1 [NO2, p-NO2—C6H4—C(O)—NMeAib—Phe—OMe] | 1.5e-05 ± 1e-06 |
| 5 |  |  |  | COC(=O)[C@H](Cc1ccccc1)NC(=O)C(C)(C)N(C)C(=O)c1ccc(C(F)(F)F)cc1 [CF3, p-CF3—C6H4C(O)—NMeAib—Phe—OMe] | 3.7e-05 ± 2e-06 |
|  |  | 12 |  | p-nitro-benzoyl-NMeAib |  |
|  |  | 0.333 |  | COc1ccc(C(=O)N(C)C(C)(C)C(=O)O)cc1 [p-methoxy-benzoyl-NMeAib] |  |
|  |  |  | about 29 seconds | p-N(CH3)2C6H4C(O)—NMeAib |  |

Source: patent US6417397B1, “N-substituted alkylamino acids for use as amino-protecting groups” (The Regents of the University of California, San Diego, priority 1999, dated 2002)
